Source: patent US20060069124A1 (priority 2004, published 2006)

Assays:
neutrophils = assay: Chemoattractant-induced chemotaxis of neutrophils; type: cell-based; conditions: C5a 10^−7 M positive control; FIG. 1
human eosinophils [1] = assay: Chemoattractant-induced migration of eosinophils; type: cell-based; conditions: for migration of human eosinophils induced by chemoattractant: C5a 10^−7 M positive control, eotaxin 50 nM on untreated eosinophils, FIG. 1, FIG. 3
Protocol: Eosinophil Isolation: Eosinophils were purified from the peripheral blood of allergic donors (Boehme, et al. J. Immunol. 163:1611 (1999)).
(§1) Culture medium alone or medium containing 5-HT (100 nM) or eotaxin (50 nM) was added to the lower chamber. In certain experiments 5-HT was added to only upper or both upper and lower chambers and incubated at 37° C. for 4 h after which the chambers were removed and the number of migrated cells was quantitated and expressed as a % of total cells added to the well.

[2] = test system: adrenergic alpha-1 receptors; conditions: cited from earlier work
5HT1 receptors = conditions: cited from earlier work
OVA-challenged mice [3] = assay: Eosinophil counts in BAL fluid in murine model of allergic airway inflammation; type: in vivo, BALB/c mice; conditions: 0.5 mg/kg body weight i.p.; versus OVA-challenged mice without compound; FIG. 7
Protocol: Murine model of allergic airway inflammation: Pulmonary eosinophilia was induced in female BALB/c mice. In brief, mice were sensitized by two i.p. injections with 50 μg ovalbumin (OVA) in 200 μl alum (Pierce). Non-sensitized mice received 200 μl of alum alone. […] Fifteen minutes after injection of the inhibitor, mice were exposed to three inhalations (30 min each) of aerosolized OVA (10 mg/ml in 0.9% sterile saline) at 1 h intervals. Non-sensitized mice received an i.p. injection of vehicle and aerosol challenge of saline only. One hour after the last aero-allergen challenge, mice were assessed for airway hyperreactivity/responsiveness (AHR) as described below and subsequently sacrificed and processed for BAL fluid collection to determine eosinophil counts (Broide, et al. Am. J. Respir. Cell Mol. Biol. 18:218 (1998)). […] BALB/c mice were immunized intraperitoneally (i.p.) with alum alone (control), 50 μg OVA in alum and boosted 12 days later with an additional dose of OVA (50 μg). […] Fifteen minutes later, mice were challenged with either nebulized OVA (10 mg/ml) or PBS (challenge control) for 30 min. […] Three hours after the last challenge, AHR was measured in unrestrained mice using BUXCO plethysmography. […] The percentage of the total cells that were eosinophils was quantitated. […] No eosinophils were detected (n.d.) in the BAL fluid of control mice.

[4] = test system: muscarinic cholinergic receptors; conditions: cited from earlier work
OVA-challenged mice [5] = assay: AHR to methacholine in murine model of allergic airway inflammation; type: in vivo, BALB/c mice; conditions: 0.5 mg/kg body weight i.p., 15 min before OVA aerosol challenge; versus OVA-challenged mice without antagonist; FIG. 6
Protocol: Murine model of allergic airway inflammation: Pulmonary eosinophilia was induced in female BALB/c mice. In brief, mice were sensitized by two i.p. injections with 50 μg ovalbumin (OVA) in 200 μl alum (Pierce). Non-sensitized mice received 200 μl of alum alone. […] Fifteen minutes after injection of the inhibitor, mice were exposed to three inhalations (30 min each) of aerosolized OVA (10 mg/ml in 0.9% sterile saline) at 1 h intervals. Non-sensitized mice received an i.p. injection of vehicle and aerosol challenge of saline only. One hour after the last aero-allergen challenge, mice were assessed for airway hyperreactivity/responsiveness (AHR) as described below and subsequently sacrificed and processed for BAL fluid collection to determine eosinophil counts (Broide, et al. Am. J. Respir. Cell Mol. Biol. 18:218 (1998)). Determination of AHR to methacholine: AHR was assessed after completion of the final OVA inhalation challenges, immediately before the mice were sacrificed using a single chamber whole body plethysmograph obtained from Buxco (Troy, N.Y.), as previously described (Broide, et al. Am. J. Physiol. Lung Cell Mol Physiol. 282:[…] (2002)). In this system, an unrestrained, spontaneously breathing mouse is placed into the main chamber of the plethysmograph, and pressure differences between this chamber and a reference chamber are recorded. […]

human eosinophils [6] = assay: Transwell chamber chemotaxis assay: eotaxin-induced eosinophil migration; type: cell-based; conditions: MDL-100,907 20 μM; eotaxin 50 nM; FIG. 3
Protocol: as §1, with “Eosinophil Isolation: Eosinophils were purified from the peripheral blood of allergic donors (Boehme, et al. J. Immunol. 163:1611 (1999)). […] Culture” for “Culture”, “well. […] Neuropsychopharmacology 15:116 (1996)), on 5-HT mediated eosinophil chemotaxis was investigated in vitro (FIG. 3).” for “well.”

dopamine D-2 receptors = dopamine D-2 receptors (Homo sapiens, UniProt P14416); conditions: cited from earlier work
human eosinophils [7] = assay: Transwell chamber chemotaxis assay: inhibition of 5-HT-induced eosinophil chemotaxis; type: cell-based; conditions: 5-HT 100 nM
Protocol: as §1, with “Eosinophil Isolation: Eosinophils were purified from the peripheral blood of allergic donors (Boehme, et al. J. Immunol. 163:1611 (1999)). […] Culture” for “Culture”, “well. […] Neuropsychopharmacology 15:116 (1996)), on 5-HT mediated eosinophil chemotaxis was investigated in vitro (FIG. 3).” for “well.”

Chain of dopamine D-2 receptors (P14416 whole entry): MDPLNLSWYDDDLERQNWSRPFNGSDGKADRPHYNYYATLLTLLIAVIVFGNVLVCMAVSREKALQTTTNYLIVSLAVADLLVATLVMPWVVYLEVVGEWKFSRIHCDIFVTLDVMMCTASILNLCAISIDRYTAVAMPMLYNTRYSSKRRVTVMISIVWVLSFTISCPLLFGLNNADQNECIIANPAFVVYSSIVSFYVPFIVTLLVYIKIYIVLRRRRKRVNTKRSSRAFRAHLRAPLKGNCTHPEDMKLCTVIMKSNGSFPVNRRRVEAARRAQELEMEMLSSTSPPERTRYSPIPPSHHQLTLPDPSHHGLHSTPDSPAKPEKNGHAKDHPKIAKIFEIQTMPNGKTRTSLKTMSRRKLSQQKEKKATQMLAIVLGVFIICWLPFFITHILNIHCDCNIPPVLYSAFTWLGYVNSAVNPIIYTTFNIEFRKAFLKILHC

NCCc1c[nH]c2ccc(O)cc12 [5-HT, Serotonin]
chemotaxis of neutrophils induced by chemoattractant (neutrophils): did not induce chemotaxis of neutrophils | concentration at which induced eosinophil migration was maximal (human eosinophils [1]; 5-HT alone, dose-dependent): 10^−6 molar (M) | migration of human eosinophils induced by chemoattractant (human eosinophils [1]; 5-HT alone): induce migration of human eosinophils in a dose-dependent manner | nature of induced migration (chemotactic or chemokinetic) (human eosinophils [1]; 5-HT in upper or both chambers, FIG. 2): directed chemotactic response and not chemokinetic

COc1cccc([C@H](O)C2CCN(CCc3ccc(F)cc3)CC2)c1OC [MDL-100,907, R-(+)-α-(2,3-dimethoxyphenyl)-1-[2-(4-fluorophenyl)ethyl]-4-piperidine methanol]
activity at adrenergic alpha-1 receptors [2]: little detectable activity | activity at 5HT1 receptors (5HT1 receptors): little detectable activity | number of eosinophils present in the BAL fluid (OVA-challenged mice [3]): inhibited the number of eosinophils | activity at muscarinic cholinergic receptors [4]: little detectable activity | AHR (airway hyperresponsiveness), BUXCO plethysmography (OVA-challenged mice [5]): markedly reduced AHR | migratory response to eotaxin of treated eosinophils (human eosinophils [6]): robust migratory response | activity at dopamine D-2 receptors (dopamine D-2 receptors): little detectable activity | chemotactic response to 5-HT (human eosinophils [7]; MDL-100,907 20 μM, versus untreated eosinophils, FIG. 3): significantly reduced chemotactic response | inhibition of eosinophil chemotaxis to 5-HT (human eosinophils [7]; all ranges from 0.1 μM to 100 μM, FIG. 5): Robust inhibition of eosinophil chemotaxis

eotaxin: chemokine, eosinophil chemoattractant
migration of human eosinophils induced by chemoattractant (human eosinophils [1]; 5-HT alone): robust migratory response

B1: C5a: positive control chemoattractant for eosinophils and neutrophils (protein, UniProt P01031 678-751, looked up)
C5a anaphylatoxin: TLQKKIEEIAAKYKHSVVKKCCYDGACVNNDETCEQRAARISLGPRCIKAFTECCVVASQLRANISHKDMQLGR
modifications: C5a anaphylatoxin
notes: positive control chemoattractant for eosinophils and neutrophils
chemotaxis of neutrophils induced by chemoattractant (neutrophils): induce migration of both eosinophils and neutrophils | migration of human eosinophils induced by chemoattractant (human eosinophils [1]; 5-HT alone): induce migration of both eosinophils and neutrophils
